According to article PMC7096528, “Crystal structure of pathogenic Staphylococcus aureus lipase complex with the anti-obesity drug orlistat” (Scientific Reports, 2020):

B1: Staphylococcus aureus lipase (SAL), native, mature form (enzyme)
chain: ANQVQPLNKYPVVFVHGFLGLVGDNAPALYPNYWGGNKFKVIEELRKQGYNVHQASVSAFGSNYDRAVELYYYIKGGRVDYGAAHAAKYGHERYGKTYKGIMPNWEPGKKVHLVGHSMGGQTIRLMEEFLRNGNKEEIAYHKAHGGEISPLFTGGHNNMVASITTLATPHNGSQAADKFGNTEAVRKIMFALNRFMGNKYSNIDLGLTQWGFKQLPNESYIDYIKRVSKSKIWTSDDNAAYDLTLDGSAKLNNMTSMNPNITYTTYTGVSSHTGPLGYENPDLGTFFLMATTSRIIGHDAREEWRKNDGVVPVISSLHPSNQPFVNVTNDEPATRRGIWQVKPIIQGWDHVDFIGVDFLDFKRKGAELANFYTGIINDLLRVEATESKGTQLKAS
notes: Staphylococcus aureus lipase (glycerol ester hydrolase), mature form of 394 residues processed from the prepolypeptide of 690 residues; numbers count on: the mature protein; Residues 4-385 are visible in the crystal; The pCold II vector is surmised to add the His tag at the N-terminus; also called SA lipase; glycerol ester hydrolase; source: E. coli, purified (three-step chromatography, …)

Key:
[1] = target: T1, Staphylococcus aureus lipase (SAL, glycerol ester hydrolase) (Staphylococcus aureus, UniProt A0A0U1MWF9); assay: co-crystal structure at […] Å; IC50 from purified-enzyme p-nitrophenyl butyrate hydrolysis assay; assay type: biochemical
T1 construct: gene lip; mature form containing 394 amino acid residues (recombinant, His-tagged; residues 4–385 determined in the native structure)

[2] = target: the molecule itself; assay: SEC; Superdex 200 Increase 10/300 GL, 10 mg/mL SAL injected at 20 °C, 50 mM Tris-HCl pH 7.5, 0.2 M NaCl, 0.5 ml/min, BSA as standard for calibration

T1 sequence (A0A0U1MWF9 entry or part of it): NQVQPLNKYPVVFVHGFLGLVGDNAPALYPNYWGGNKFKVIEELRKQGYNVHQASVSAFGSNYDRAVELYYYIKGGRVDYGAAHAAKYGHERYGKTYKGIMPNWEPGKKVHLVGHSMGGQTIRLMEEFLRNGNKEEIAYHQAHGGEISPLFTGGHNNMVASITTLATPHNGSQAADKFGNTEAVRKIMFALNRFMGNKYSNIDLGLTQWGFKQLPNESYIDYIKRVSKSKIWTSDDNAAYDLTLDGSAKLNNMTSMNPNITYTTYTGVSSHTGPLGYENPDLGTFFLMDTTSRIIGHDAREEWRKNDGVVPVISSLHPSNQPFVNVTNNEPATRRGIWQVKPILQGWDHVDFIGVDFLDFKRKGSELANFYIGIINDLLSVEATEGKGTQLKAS

Molecule | IC50 [1] [nM] | stoichiometry N [2]
CCCCCCCCCCC[C@@H](C[C@@H]1OC(=O)[C@H]1CCCCCC)OC(=O)[C@H](CC(C)C)NC=O [orlistat] | 2400 | 
B1 |  | 2
